Measurements published in paper PMC5702336, “Critical Role of Hepatic Cyp450s in the Testis-Specific Toxicity of (5R)-5-Hydroxytriptolide in C57BL/6 Mice” (Frontiers in Pharmacology, 2017).
“Also recorded” adds a separate entry of the source.

How the values were obtained:
rat liver microsomes = assay: Chemical inhibition study of LLDT-8 metabolism with selective CYP inhibitors; type: in vitro ADME; conditions: LLDT-8 2 μM, 0.5 and 1 h, residual LLDT-8 by LC-MS/MS
Protocol: The chemical inhibition assay was performed as previously reported (Li et al., [2008]). A 400 μl typical incubation mixture contained 0.2 mg rat liver microsomes (20 mg/ml, Cat. No: LM-DS-02M, Lot. No: BDVH, Research Institute for liver Diseases, Shanghai, China), 2 μM LLDT-8, 5 mM MgCl2, 1 mM NADPH (Cat. No: 10107824001, Lot. No: 20595625, Sigma, USA) and selective inhibitors of each CYP isoforms in a 100 mM phosphate buffer (pH 7.4). The inhibitors used were as follows: quercetin (2 μM) for CYP1A and CYP2C8, 8-methoxypsoralen (2.5 μM) for CYP2A6, sulfaphenazole (10 μM) for CYP2C9, omeprazole (20 μM) for CYP2C19, quinidine (10 μM) for CYP2D6, clomethiazole (50 μM) for CYP2E1, ketoconazole (1 μM) for CYP3A4 and aminobenzotriazole (50 μM, a broad CYP inhibitor) (Tsyrlov et al., [1994]; Li et al., [2008]). After incubation for 0, 0.5, and 1 h, 100 μl supernatant was collected and quenched by the addition of 100 μl of ice-cold acetonitrile. The mixtures were then centrifuged for 10 min at 20,000 × g. An aliquot of the supernatant was analyzed by LC-MS/MS to monitor the residual LLDT-8 without extraction.

mice testes = assay: Testicular toxicity comparison between triptolide and LLDT-8 (15 days by gavage, H&E); type: in vivo, mouse; conditions: 0.25 mg/kg and 0.5 mg/kg by gavage for 15 days
Protocol: For toxicity experiments, mice (n = 3 for each group) were treated with tritpilide (0.125, 0.25, 0.5mg/kg), LLDT-8 (0.125, 0.25, 0.5mg/kg) consecutively administered by gavage for 15 days. The control group received saline. Mice were sacrificed on the 15th day post-administration and blood, liver, kidney, spleen, testis and epididymis were collected. The main lobe of liver, kidney, spleen and epididymis were fixed in 10% neutral buffered formalin for histological examination, the left testicle was fixed in Davidson’s buffer for 16 hours followed by 10% neutral buffered formalin. Tissue sections were stained with hematoxylin and eosin (H&E). Remaining tissues were stored at -80 °C for RNA and protein extraction.
Supplementary Figure S1 Comparison of testicular toxicity between triptolide(TL) and LLDT-8. Mice (n=3) were weighted before sacrificed on the 15th day post-administration of triptolide, LLDT-8 or saline. The testes were collected and weighted. […] (G-H) Comparison of epididymis weight between triptolide and LLDT-8. Significant difference was determined by one-way Anova, mean ± SD. * p<0.05, *** p<0.001 vs Saline group. # p<0.05, ## p<0.01, ### p<0.001 vs T8 group at the same dosage.

Row | SMILES | effect of CYP inhibitor on the metabolism of LLDT-8 (rat liver microsomes) | testis morphology (H&E) (mice testes)
1 | Nn1nnc2ccccc21 [aminobenzotriazole] | inhibited | 
2 | Cc1ncsc1CCCl [clomethiazole] | inhibited; also recorded: seems to completely inhibit | 
3 | CC(=O)N1CCN(c2ccc(OCC3COC(Cn4ccnc4)(c4ccc(Cl)cc4Cl)O3)cc2)CC1 (stereo not drawn) [ketoconazole] | inhibited | 
4 | COc1ccc2[nH]c([S+]([O-])Cc3ncc(C)c(OC)c3C)nc2c1 (stereo not drawn) [omeprazole] | inhibited | 
5 | C=C[C@H]1C[N@@]2CC[C@H]1C[C@@H]2[C@@H](O)c1ccnc2ccc(OC)cc12 [quinidine] | inhibited | 
6 | CC(C)[C@]12O[C@H]1[C@@H]1O[C@]13[C@]1(O[C@H]1C[C@H]1C4=C(CC[C@@]13C)C(=O)OC4)[C@@H]2O [triptolide] |  | induced severe testicular injury
